Experimental data published in PubChem BioAssay (NCI).
Where “and” joins values, the source holds several entries; their conditions need not be identical. Equal values may be shown once.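 Cultured in 96-well plates, cells were exposed to test compound for 48 hours across five concentrations. GI50 = concentration required for 50% inhibition of growth. At the TGI there is no net growth.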

Experiments:
Test in all cases: inhibition of tumour cell growth, NCI panel, 48 h
SK-MEL-2 melanoma = test system: SK-MEL-2 melanoma
RPMI-8226 leukemia = test system: RPMI-8226 leukemia
HOP-62 NSCLC = test system: HOP-62 NSCLC
KM12 colon = test system: KM12 colon
MCF7 breast = test system: MCF7 breast
OVCAR-8 ovarian = test system: OVCAR-8 ovarian
SK-MEL-5 melanoma = test system: SK-MEL-5 melanoma
SR leukemia = test system: SR leukemia
UACC-257 melanoma = test system: UACC-257 melanoma
DMS 273 small cell lung = test system: DMS 273 small cell lung

In the case of `COC(=O)/C=C(/C(=O)OC)c1c(C)c(C)c2c(C)cc(C)cc(C)c1-2`, the TGI (SK-MEL-2 melanoma) is reported as > 100 µM, the TGI (RPMI-8226 leukemia) is reported as > 100 µM and the TGI (HOP-62 NSCLC) is reported as 81 µM. For the same compound, the TGI (KM12 colon) was > 100 µM, the TGI (MCF7 breast) was > 100 µM and the TGI (OVCAR-8 ovarian) was > 100 µM. For the same compound, the TGI (SK-MEL-5 melanoma) was > 100 µM, the TGI (SR leukemia) was > 100 µM and the TGI (UACC-257 melanoma) was > 100 µM.
With `CCCCOP1(=O)C=C(C)C(=C(Cl)Cl)C(C)=C1` (stereo not given) the TGI (SK-MEL-2 melanoma) was 5.11 µM, the TGI (RPMI-8226 leukemia) was > 24.4 µM and the TGI (HOP-62 NSCLC) was 32.7 µM. For the same compound, the TGI (KM12 colon) was 4.45 µM, the TGI (OVCAR-8 ovarian) was > 54.2 µM and the TGI (SK-MEL-5 melanoma) was > 32.9 µM. It also gave a TGI (DMS 273 small cell lung) of 16.6 µM, a TGI (SR leukemia) of 29.9 µM and a TGI (UACC-257 melanoma) of 11.5 µM.
For `NC(=S)Nc1[nH]c(=S)nc2c1SC1=N/C(=C\c3ccco3)C(=O)N12`, the TGI (SK-MEL-2 melanoma) was > 100 µM, the TGI (RPMI-8226 leukemia) was > 90.6 µM and the TGI (HOP-62 NSCLC) was > 100 µM. For the same compound, the TGI (KM12 colon) was > 100 µM, the TGI (MCF7 breast) was > 100 µM and the TGI (OVCAR-8 ovarian) was > 100 µM. The TGI (SK-MEL-5 melanoma) was > 100 µM, the TGI (SR leukemia) was > 70.7 µM and the TGI (UACC-257 melanoma) was > 100 µM.
`Oc1ccc(SCc2cc(O)c(O)c(O)c2)cc1` was tested, and the TGI (SK-MEL-2 melanoma) was > 100 µM, the TGI (RPMI-8226 leukemia) was 78.6 µM and the TGI (HOP-62 NSCLC) was 56.4 µM. The TGI (KM12 colon) was 42.6 µM, the TGI (MCF7 breast) was 38.4 µM and the TGI (OVCAR-8 ovarian) was 49.6 µM. The TGI (SK-MEL-5 melanoma) was 40.7 µM, the TGI (SR leukemia) was > 100 µM and the TGI (UACC-257 melanoma) was > 100 µM.
For `NC(=O)c1ccc2c(c1)S(=O)(=O)c1ccccc1C2=O`, the TGI (SK-MEL-2 melanoma) was > 100 µM, the TGI (RPMI-8226 leukemia) was > 100 µM and the TGI (HOP-62 NSCLC) was > 100 µM. The TGI (KM12 colon) was > 100 µM, the TGI (MCF7 breast) was > 100 µM and the TGI (OVCAR-8 ovarian) was > 100 µM. For the same compound, the TGI (SK-MEL-5 melanoma) was > 100 µM, the TGI (SR leukemia) was > 100 µM and the TGI (UACC-257 melanoma) was > 100 µM.
For `CNC(=O)c1cc(NC(=O)N(CCC#N)CCN(C(=O)N[C@@H](Cc2ccccc2)C(=O)N[C@@H](CC(C)C)C(=O)NC)c2ccccc2)ccc1OC`, the TGI (SK-MEL-2 melanoma) was > 74.5 µM, the TGI (RPMI-8226 leukemia) was > 88.3 µM and the TGI (HOP-62 NSCLC) was > 100 µM. The TGI (KM12 colon) was > 100 µM, the TGI (MCF7 breast) was > 100 µM and the TGI (OVCAR-8 ovarian) was > 100 µM. The TGI (SK-MEL-5 melanoma) was > 69.2 µM, the TGI (SR leukemia) was 68.9 µM and the TGI (UACC-257 melanoma) was 51 µM.
`NCCNc1cccc2ccccc12` was tested, and the TGI (SK-MEL-2 melanoma) was > 100 µM, the TGI (RPMI-8226 leukemia) was > 100 µM and the TGI (HOP-62 NSCLC) was > 100 µM. For the same compound, the TGI (KM12 colon) was > 100 µM, the TGI (OVCAR-8 ovarian) was > 100 µM and the TGI (DMS 273 small cell lung) was > 100 µM. The TGI (SR leukemia) was > 100 µM and the TGI (UACC-257 melanoma) was > 100 µM.
With `c1ccc2c(c1)nc(NC1CCCC1)c1[nH]c(C3CCCC3)nc12` the TGI (SK-MEL-2 melanoma) was 19.1 µM, the TGI (RPMI-8226 leukemia) was > 67.9 µM and the TGI (HOP-62 NSCLC) was 35.9 µM. It also gave a TGI (KM12 colon) of 21.3 µM, a TGI (OVCAR-8 ovarian) of 24.3 µM and a TGI (SK-MEL-5 melanoma) of 17.1 µM. It also gave a TGI (DMS 273 small cell lung) of 22.3 µM, a TGI (SR leukemia) of 63.5 µM and a TGI (UACC-257 melanoma) of 11.1 µM.
For `O=C1C(Br)=CC2(C=C1Br)CCNC1=C2C(=O)c2cccnc2C1=O`, the TGI (SK-MEL-2 melanoma) was 10.9 µM, the TGI (RPMI-8226 leukemia) was 36.9 µM and the TGI (HOP-62 NSCLC) was 21.3 µM. For the same compound, the TGI (KM12 colon) was 35.8 µM, the TGI (MCF7 breast) was 41.3 µM and the TGI (OVCAR-8 ovarian) was 32.4 µM. The TGI (SK-MEL-5 melanoma) was 12.8 µM, the TGI (SR leukemia) was 18.5 µM and the TGI (UACC-257 melanoma) was 21.3 µM.
`O=C1C=C(Br)c2c(Br)sc(Br)c21` was tested, and the TGI (SK-MEL-2 melanoma) was 49.3 µM, the TGI (RPMI-8226 leukemia) was > 100 µM and the TGI (HOP-62 NSCLC) was > 79.9 µM. For the same compound, the TGI (KM12 colon) was 37.3 µM, the TGI (MCF7 breast) was 17.4 µM and the TGI (OVCAR-8 ovarian) was 12.1 µM. For the same compound, the TGI (SK-MEL-5 melanoma) was 31.4 µM, the TGI (SR leukemia) was > 100 µM and the TGI (UACC-257 melanoma) was 12.6 µM.
For `O=C(CCCCCCCCC(=O)N1C(=O)CC(=O)N(c2cccc(Cl)c2)C1=S)N1C(=O)CC(=O)N(c2cccc(Cl)c2)C1=S`, the TGI (SK-MEL-2 melanoma) was > 100 µM, the TGI (RPMI-8226 leukemia) was > 100 µM and the TGI (HOP-62 NSCLC) was > 100 µM. The TGI (KM12 colon) was > 100 µM, the TGI (MCF7 breast) was > 100 µM and the TGI (OVCAR-8 ovarian) was > 100 µM. For the same compound, the TGI (SK-MEL-5 melanoma) was > 100 µM, the TGI (SR leukemia) was 67.8 µM and the TGI (UACC-257 melanoma) was > 100 µM.
`NC(=O)C#CC(N)=O` was tested, and the TGI (SK-MEL-2 melanoma) was 30.2 µM and 26.4 µM and 42.8 µM, the TGI (RPMI-8226 leukemia) was 62.1 µM and the GI50 (HOP-62 NSCLC) was 57.4 µM. The TGI (HOP-62 NSCLC) was 211 µM and 170 µM and > 100 µM, the GI50 (KM12 colon) was 38.9 µM and 54.1 µM and > 100 µM and the TGI (KM12 colon) was 164 µM and 161 µM and > 100 µM. The TGI (MCF7 breast) was 48.5 µM and 56.8 µM, the GI50 (OVCAR-8 ovarian) was 8.34 µM and 19.2 µM and the TGI (OVCAR-8 ovarian) was 23.4 µM and 47.5 µM. For the same compound, the GI50 (SK-MEL-5 melanoma) was 15 µM and 54.6 µM, the TGI (SK-MEL-5 melanoma) was 28.2 µM and > 100 µM and the GI50 (DMS 273 small cell lung) was 23.5 µM and 30.5 µM and > 100 µM. For the same compound, the TGI (DMS 273 small cell lung) was 73.1 µM and 106 µM and > 100 µM, the TGI (SR leukemia) was 36.3 µM and the GI50 (UACC-257 melanoma) was 4.46 µM and 13.6 µM. For the same compound, the TGI (UACC-257 melanoma) was 14.2 µM and 19.5 µM.
`Cc1sc(/N=C/c2c[nH]c3ccccc23)c(C#N)c1C` was tested, and the TGI (SK-MEL-2 melanoma) was > 100 µM, the TGI (RPMI-8226 leukemia) was > 100 µM and the TGI (HOP-62 NSCLC) was > 100 µM. For the same compound, the TGI (KM12 colon) was > 100 µM, the TGI (MCF7 breast) was > 100 µM and the TGI (OVCAR-8 ovarian) was > 100 µM. The TGI (SK-MEL-5 melanoma) was 53.2 µM, the TGI (SR leukemia) was > 100 µM and the TGI (UACC-257 melanoma) was > 100 µM.
`Cc1cccc(NC(=O)C(=O)C(C(=O)c2ccccc2F)C2OC(=O)c3ccccc32)c1Cl` (stereo not given) was tested, and the TGI (SK-MEL-2 melanoma) was > 100 µM, the TGI (RPMI-8226 leukemia) was > 100 µM and the TGI (HOP-62 NSCLC) was > 100 µM. The TGI (KM12 colon) was 94.5 µM, the TGI (OVCAR-8 ovarian) was 50.6 µM and the TGI (SK-MEL-5 melanoma) was > 100 µM. For the same compound, the TGI (DMS 273 small cell lung) was > 100 µM, the TGI (SR leukemia) was > 100 µM and the TGI (UACC-257 melanoma) was > 100 µM.
In the case of `CN(NC(=O)CCCl)C1=NCCCCN1`, the TGI (SK-MEL-2 melanoma) is reported as > 100 µM, the TGI (RPMI-8226 leukemia) is reported as > 100 µM and the TGI (HOP-62 NSCLC) is reported as > 100 µM. The TGI (KM12 colon) was > 100 µM, the TGI (MCF7 breast) was > 100 µM and the TGI (OVCAR-8 ovarian) was > 100 µM. For the same compound, the TGI (SK-MEL-5 melanoma) was > 100 µM, the TGI (SR leukemia) was > 100 µM and the TGI (UACC-257 melanoma) was > 100 µM.
In the case of `COC(OC)C1OC(CO)C(n2ccc(N)nc2=O)C1O` (stereo not given), the TGI (SK-MEL-2 melanoma) is reported as > 100 µM, the TGI (RPMI-8226 leukemia) is reported as > 100 µM and the TGI (HOP-62 NSCLC) is reported as > 100 µM. For the same compound, the TGI (KM12 colon) was > 100 µM, the TGI (MCF7 breast) was > 100 µM and the TGI (OVCAR-8 ovarian) was > 100 µM. For the same compound, the TGI (SK-MEL-5 melanoma) was > 100 µM, the TGI (SR leukemia) was > 100 µM and the TGI (UACC-257 melanoma) was > 100 µM.
